This experiment concerns the target T1, LBP (leucine-binding protein) (Escherichia coli, UniProt P04816).
T1 sequence (P04816 24-369): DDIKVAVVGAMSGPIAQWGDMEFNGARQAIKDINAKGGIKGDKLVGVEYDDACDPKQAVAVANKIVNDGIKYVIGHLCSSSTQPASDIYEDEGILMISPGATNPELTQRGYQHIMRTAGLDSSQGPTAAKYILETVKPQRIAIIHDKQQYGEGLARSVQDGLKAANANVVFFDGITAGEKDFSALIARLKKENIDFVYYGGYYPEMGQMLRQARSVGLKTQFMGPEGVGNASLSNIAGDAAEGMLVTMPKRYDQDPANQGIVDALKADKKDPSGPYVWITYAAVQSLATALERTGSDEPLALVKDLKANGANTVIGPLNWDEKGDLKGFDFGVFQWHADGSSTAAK

From PMC7045694 (ACS Nano, 2020) come the findings set out here.

Usually Kd stands for the free concentration of one partner at which half of the binding sites on the other are occupied at equilibrium, for simple one-to-one binding. Lower therefore signals higher affinity. With `CC(C)C[C@H](N)C(=O)O` [leucine], the Kd turned out to be 86 ± 19 nM.
